36 compounds from patent US7638540B2, “Benzofuran compound and medicinal composition containing the same” (The New Industry Research Organization, priority 2003, dated 2009) can be followed below.

As usually defined, the melting point is the temperature, or range, at which the solid turns liquid. Compound `Cc1oncc1C(=O)Nc1c(C(C)O)oc2ccc(Br)cc12` (stereo not drawn) [Example 70, N-[5-bromo-2-(1-hydroxyethyl)benzofuran-3-yl]-5-methylisoxazole-4-carboxamide] gave a melting point of 125.2 to 128.8 °C. Compound `Cc1oncc1C(=O)Nc1c(C(=O)c2ccc(C#N)cc2)oc2ccc(Br)cc12` [Example 73, N-[5-bromo-2-(4-cyanobenzoyl)benzofuran-3-yl]-5-methylisoxazole-4-carboxamide] had a melting point of 236.3 to 238.9 °C. Compound `CCN(CC)C(=O)/C=C(\C)c1ccc2oc(C(C)=O)c(NC(=O)c3cnoc3C)c2c1` [Example 74, (E)-N-[2-acetyl-5-(2-diethylcarbamoyl-1-methylvinyl)benzofuran-3-yl]-5-methylisoxazole-4-carboxamide] showed a melting point of 170.3 to 174.1 °C. `CC(=O)OC(C)c1oc2ccccc2c1NC(=O)c1cnoc1C` (stereo not drawn) [Example 76, 1-{3-[(5-methylisoxazole-4-carbonyl)amino]benzofuran-2-yl}ethyl acetate] registered a melting point of 130.2 to 132.9 °C. The compound `Cc1oncc1C(=O)Nc1c(C(=O)c2ccc(Cl)cc2)oc2ccc(Br)cc12` [Example 77, N-[5-bromo-2-(4-chlorobenzoyl)benzofuran-3-yl]-5-methylisoxazole-4-carboxamide] displayed a melting point of 240.8 to 243.2 °C. In turn, `Cc1oncc1C(=O)Nc1c(C(N)=O)oc2ccccc12` [Example 79, N-(2-carbamoylbenzofuran-3-yl)-5-methylisoxazole-4-carboxamide] yielded a melting point of 250.7 to 252.6 °C. The figure for `COc1cccc2c(NC(=O)c3cnoc3C)c(C(C)=O)oc12` [Example 80, N-(2-acetyl-7-methoxybenzofuran-3-yl)-5-methylisoxazole-4-carboxamide] is 181 to 181.7 °C; for `C/C(=C\C(=O)N1CCOCC1)c1ccc2oc(C(=O)c3ccc(C#N)cc3)c(NC(=O)c3cnoc3C)c2c1` [Example 81, (E)-N-[2-(4-cyanobenzoyl)-5-(1-methyl-3-morpholino-3-oxo-1-propenyl)benzofuran-3-yl]-5-methylisoxazole-4-carboxamide] it is 229.4 to 232.5 °C.

In the case of `COc1cccc2c(NC(=O)c3cnoc3C)c(C(=O)c3ccc(Cl)cc3)oc12` [Example 82, N-[2-(4-chlorobenzoyl)-7-methoxybenzofuran-3-yl]-5-methylisoxazole-4-carboxamide], the melting point fell in the range of 237.4 to 239.5 °C. In the case of `COc1ccc2c(NC(=O)c3cnoc3C)c(C(C)=O)oc2c1` [Example 83, N-(2-acetyl-6-methoxybenzofuran-3-yl)-5-methylisoxazole-4-carboxamide], the melting point is 168.2 to 170.1 °C. `COc1ccc(CCNC(=O)/C=C(\C)c2ccc(C(=O)c3oc4c(OC)cccc4c3NC(=O)c3cnoc3C)cc2)cc1OC` [Example 84, (E)-N-[2-(4-{2-[2-(3,4-dimethoxyphenyl)ethylcarbamoyl]-1-methylvinyl}benzoyl)-7-methoxybenzofuran-3-yl]-5-methylisoxazole-4-carboxamide] registered a melting point of 237.5 to 239.1 °C. In the case of `Cc1oncc1C(=O)Nc1c(C#N)oc2ccc(Br)cc12` [Example 85, N-(5-bromo-2-cyanobenzofuran-3-yl)-5-methylisoxazole-4-carboxamide] it was 239.2 to 241.9 °C.

Turning to `Cc1oncc1C(=O)Nc1c(C#N)oc2ccccc12` [Example 86, N-(2-cyanobenzofuran-3-yl)-5-methylisoxazole-4-carboxamide], the melting point is 227.3 to 230.4 °C. The compound `CCN(CC)C(=O)/C=C(\C)c1ccc2oc(C(=O)c3ccc(C#N)cc3)c(NC(=O)c3cnoc3C)c2c1` [Example 89, (E)-N-[2-(4-cyanobenzoyl)-5-(2-diethylcarbamoyl-1-methylvinyl)benzofuran-3-yl]-5-methylisoxazole-4-carboxamide] returned a melting point of 202.6 to 205.5 °C.

The compound `COc1ccc(CCNC(=O)/C=C(\C)c2ccc3oc(C(=O)c4ccc(C#N)cc4)c(NC(=O)c4cnoc4C)c3c2)cc1OC` [Example 90, (E)-N-(2-(4-cyanobenzoyl)-5-{2-[2-(3,4-dimethoxyphenyl)ethylcarbamoyl]-1-methylvinyl}benzofuran-3-yl)-5-methylisoxazole-4-carboxamide] showed a melting point of 162.6 to 165.5 °C. `CCOC(=O)c1oc2ccc(/C(C)=C/C(=O)N(CC)CC)cc2c1NC(=O)c1cnoc1C` [Example 91, Ethyl (E)-5-(2-diethylcarbamoyl-1-methylvinyl)-3-[(5-methylisoxazole-4-carbonyl)amino]benzofurane-2-carboxylate] returned a melting point of 138.9 to 141.2 °C. Regarding `C/C(O)=C(\C#N)C(=O)Nc1c(C(=O)O)oc2ccccc12` [Example 92, (Z)-3-(2-cyano-3-hydroxy-2-butenoylamino)benzofurane-2-carboxylic acid], the melting point was in the range of 196.3 to 196.6 °C. On to `CC(=O)c1oc2ccc(C#N)cc2c1NC(=O)/C(C#N)=C(/C)O` [Example 93, (Z)-N-(2-acetyl-5-cyanobenzofuran-3-yl)-2-cyano-3-hydroxy-2-butenamide], for which the melting point lay in the range of 216 to 218 °C. The compound `CC(=O)c1oc2ccc(/C(C)=C/C(=O)N3CCN(c4ccccc4)CC3)cc2c1NC(=O)/C(C#N)=C(/C)O` [Example 95, N-{2-acetyl-5-[1-methyl-3-oxo-3-(4-phenylpiperazin-1-yl)-(E)-1-propenyl]benzofuran-3-yl}-2-cyano-3-hydroxy-(Z)-2-butenamide] gave a melting point of 167.6 to 168.7 °C. In turn, `CC(=O)c1oc2ccc(Br)cc2c1NC(=O)/C(C#N)=C(/C)O` [Example 96, (Z)-N-(2-acetyl-5-bromobenzofuran-3-yl)-2-cyano-3-hydroxy-2-butenamide] displayed a melting point of 221.9 to 222.4 °C. Regarding `COc1cccc2c(NC(=O)/C(C#N)=C(/C)O)c(C(=O)c3ccc(Br)cc3)oc12` [Example 99, (Z)-N-[2-(4-bromobenzoyl)-7-methoxybenzofuran-3-yl]-2-cyano-3-hydroxy-2-butenamide], the melting point lay within 131.7 to 133.4 °C. As to `C/C(O)=C(\C#N)C(=O)Nc1c(C(=O)c2ccc(C#N)cc2)oc2ccc(Br)cc12` [Example 100, (Z)-N-[5-bromo-2-(4-cyanobenzoyl)benzofuran-3-yl]-2-cyano-3-hydroxy-2-butenamide], the melting point is 269.3 to 271.2 °C.

As to `C/C(O)=C(\C#N)C(=O)Nc1c(C(N)=O)oc2ccccc12` [Example 101, (Z)-3-(2-cyano-3-hydroxy-2-butenoylamino)benzofurane-2-carboxamide], the melting point was 265 °C. `COc1cccc2c(NC(=O)/C(C#N)=C(/C)O)c(C(C)=O)oc12` [Example 102, (Z)-N-(2-acetyl-7-methoxybenzofuran-3-yl)-2-cyano-3-hydroxy-2-butenamide] displayed a melting point of 207.2 to 208.9 °C.

`COc1ccc(CCNC(=O)/C=C(\C)c2ccc3oc(C(C)=O)c(NC(=O)/C(C#N)=C(/C)O)c3c2)cc1OC` [Example 103, N-(2-acetyl-5-{(E)-2-[2-(3,4-dimethoxyphenyl)ethylcarbamoyl]-1-methylvinyl}benzofuran-3-yl)-2-cyano-3-hydroxy-(Z)-2-butenamide] came in with a melting point of 176.7 to 179.7 °C. In the case of `C/C(O)=C(\C#N)C(=O)Nc1c(C#N)oc2ccc(Br)cc12` [Example 104, (Z)-N-(5-bromo-2-cyanobenzofuran-3-yl)-2-cyano-3-hydroxy-2-butenamide], the melting point is 206.3 to 208.3 °C. `C/C(O)=C(\C#N)C(=O)Nc1c(C#N)oc2ccccc12` [Example 105, (Z)-N-(2-cyanobenzofuran-3-yl)-2-cyano-3-hydroxy-2-butenamide] registered a melting point of 165.8 to 167.2 °C. `COc1ccc(CCNC(=O)/C=C(\C)c2ccc(C(=O)c3oc4c(OC)cccc4c3NC(=O)/C(C#N)=C(/C)O)cc2)cc1OC` [Example 106, N-[2-(4-{(E)-2-[2-(3,4-dimethoxyphenyl)ethylcarbamoyl]-1-methylvinyl}benzoyl)-7-methoxybenzofuran-3-yl]-2-cyano-3-hydroxy-(Z)-2-butenamide] had a melting point of 202.9 to 205.8 °C. `CCOC(=O)c1oc2ccccc2c1NC(=O)/C(C#N)=C(/C)O` [Example 107, Ethyl (Z)-3-(2-cyano-3-hydroxy-2-butenoylamino)benzofurane-2-carboxylate] returned a melting point of 147.5 to 150.1 °C. The figure for `CC(=O)c1oc2ccc(/C(C)=C/C(=O)N3CCOCC3)cc2c1NC(=O)/C(C#N)=C(/C)O` [Example 108, N-[2-acetyl-5-(1-methyl-3-morpholino-3-oxo-(E)-1-propenyl)benzofuran-3-yl]-2-cyano-3-hydroxy-(Z)-2-butenamide] is 206.9 to 208.6 °C; for `CCN(CC)C(=O)/C=C(\C)c1ccc2oc(C(=O)c3ccc(C#N)cc3)c(NC(=O)/C(C#N)=C(/C)O)c2c1` [Example 109, N-[2-(4-cyanobenzoyl)-5-((E)-2-diethylcarbamoyl-1-methylvinyl)benzofuran-3-yl]-2-cyano-3-hydroxy-(Z)-2-butenamide] it is 219.5 to 222.8 °C; for `COc1ccc(NC(=O)c2cnoc2C)c2cc(C(C)=O)oc12` [Example 111, N-(2-acetyl-7-methoxybenzofuran-4-yl)-5-methylisoxazole-4-carboxamide] it is 201.8 to 205.9 °C. With `COc1ccc(NC(=O)/C(C#N)=C(/C)O)c2cc(C(C)=O)oc12` [Example 112, (Z)-N-(2-acetyl-7-methoxybenzofuran-4-yl)-2-cyano-3-hydroxy-2-butenamide], the melting point was in the range of 243.4 to 246.4 °C. On to `O=C(/C=C/c1ccccc1)Nc1c(C(=O)c2ccc(Cl)cc2)oc2ccc(Br)cc12` [Example 113, (E)-N-[5-bromo-2-(4-chlorobenzoyl)benzofuran-3-yl]-3-phenylacrylamide], for which the melting point fell in the range of 171.2 to 171.8 °C.

Compound `C/C=C/C(=O)Nc1c(C(=O)c2ccc(Cl)cc2)oc2ccc(Br)cc12` [Example 115, (E)-N-[5-bromo-2-(4-chlorobenzoyl)benzofuran-3-yl]-2-butenamide] displayed a melting point of 210.4 to 212.8 °C.

For `C/C=C/C(=O)Nc1c(C(C)=O)oc2cc(OC)ccc12` [Example 116, (E)-N-(2-acetyl-6-methoxybenzofuran-3-yl)-2-butenamide], the melting point is 153.8 to 155.7 °C.
